ChEMBL document CHEMBL2146462, “Tyrosinase inhibitory activity of a 6-isoprenoid-substituted flavanone isolated from Dalea elegans” (Bioorg Med Chem, 2011)
pIC50, pKi: −log10 of the molar value. Values belong to the compound of their own block, whether it stands above or below them. The source made the active and inactive calls. No cut-off for these calls is given here.

Tests used:
[1] = molecular target: T1, Tyrosinase (Agaricus bisporus, UniProt O42713)
T1 sequence (O42713 whole entry): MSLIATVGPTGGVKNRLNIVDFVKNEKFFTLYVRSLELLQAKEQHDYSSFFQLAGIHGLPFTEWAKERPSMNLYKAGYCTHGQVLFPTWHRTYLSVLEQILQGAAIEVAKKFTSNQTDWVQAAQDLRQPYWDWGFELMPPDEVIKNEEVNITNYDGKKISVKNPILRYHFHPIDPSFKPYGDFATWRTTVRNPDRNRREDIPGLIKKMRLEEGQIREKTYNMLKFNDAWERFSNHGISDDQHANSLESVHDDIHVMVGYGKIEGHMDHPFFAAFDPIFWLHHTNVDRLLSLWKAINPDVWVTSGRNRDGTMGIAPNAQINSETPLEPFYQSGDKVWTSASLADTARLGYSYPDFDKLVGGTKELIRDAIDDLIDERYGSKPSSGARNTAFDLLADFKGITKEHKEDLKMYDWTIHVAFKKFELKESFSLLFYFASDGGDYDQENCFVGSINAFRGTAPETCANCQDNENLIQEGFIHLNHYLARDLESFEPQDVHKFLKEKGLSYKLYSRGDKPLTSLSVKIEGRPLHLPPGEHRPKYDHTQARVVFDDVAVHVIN

[2] = molecular target: T1, Tyrosinase; remark: listed apart in the source
Description: Inhibition of mushroom tyrosinase using as L-DOPA substrate after 2 mins by spectrophotometric analysis

[3] = molecular target: T1, Tyrosinase; remark: listed apart in the source
Description: Inhibition of mushroom tyrosinase using as L-tyrosine substrate after 10 mins by spectrophotometric analysis

[4] = molecular target: T2, Tyrosinase (Agaricus bisporus) (UniProt O42713); test: Potency index, ratio IC50 for hydroquinone to compound against mushroom tyrosinase using as L-tyrosine substrate after 10 mins by spectrophotometric analysis
T2 sequence (whole entry): T1 sequence (O42713 whole entry)

[5] = molecular target: T2, Tyrosinase (Agaricus bisporus); test: Inhibition of mushroom tyrosinase assessed as lag time for L-tyrosine oxidation at 5.51 uM by spectrophotometric analysis
[6] = molecular target: T2, Tyrosinase (Agaricus bisporus); test: Inhibition of mushroom tyrosinase assessed as reduction in reaction rate of L-tyrosine oxidation by spectrophotometric analysis
[7] = molecular target: T2, Tyrosinase (Agaricus bisporus); test: Reversible inhibition of mushroom tyrosinase using L-tyrosine substrate by spectrophotometric analysis
[8] = molecular target: T2, Tyrosinase (Agaricus bisporus); test: Reversible inhibition of mushroom tyrosinase using L-DOPA substrate by spectrophotometric analysis
[9] = molecular target: T2, Tyrosinase (Agaricus bisporus); test: Potency index, ratio IC50 for hydroquinone to compound against mushroom tyrosinase using as […] substrate after 10 mins by spectrophotometric analysis
[10] = molecular target: T2, Tyrosinase (Agaricus bisporus); test: Competitive inhibition of mushroom tyrosinase using L-tyrosine substrate by Lineweaver-Burk double reciprocal plot analysis
[11] = molecular target: T2, Tyrosinase (Agaricus bisporus); test: Noncompetitive inhibition of mushroom tyrosinase using […] substrate by Lineweaver-Burk double reciprocal plot analysis
[12] = molecular target: T2, Tyrosinase (Agaricus bisporus); test: […] mixed-I type inhibition of mushroom tyrosinase using L-tyrosine substrate by Lineweaver-Burk double reciprocal plot analysis
[13] = molecular target: T1, Tyrosinase; test: Inhibition of mushroom tyrosinase assessed as inhibition constant for compound-free enzyme using as L-tyrosine substrate by spectrophotometric analysis
[14] = molecular target: T1, Tyrosinase; test: Inhibition of mushroom tyrosinase assessed as inhibition constant for compound-enzyme-substrate complex using as L-tyrosine substrate by spectrophotometric analysis
[15] = molecular target: T1, Tyrosinase; test: Inhibition of mushroom tyrosinase assessed as inhibition constant for compound-free enzyme using as […] substrate by spectrophotometric analysis
[16] = molecular target: T1, Tyrosinase; test: Inhibition of mushroom tyrosinase assessed as inhibition constant for compound-enzyme-substrate complex using as […] substrate by spectrophotometric analysis
[17] = molecular target: T2, Tyrosinase (Agaricus bisporus); test: Potency index, ratio IC50 for kojic acid to compound against mushroom tyrosinase using as L-tyrosine substrate after 10 mins by spectrophotometric analysis
[18] = Metal chelating activity of the compound assessed as formation of copper complex at 84.66 uM after 1 min by UV-vis spectroscopy; assay type: functional
[19] = molecular target: T2, Tyrosinase (Agaricus bisporus); test: Potency index, ratio Ki for kojic acid to compound against mushroom tyrosinase assessed as inhibition constant for compound-free enzyme using as L-tyrosine substrate by spectrophotometric analysis
[20] = molecular target: T2, Tyrosinase (Agaricus bisporus); test: Potency index, ratio Ki for kojic acid to compound against mushroom tyrosinase diphenolase activity
[21] = molecular target: T2, Tyrosinase (Agaricus bisporus); test: Potency index, ratio IC50 for (Z,Z)-5-trideca-4,7-dienyl)-resorcinol to compound against mushroom tyrosinase assessed as inhibition constant for compound-free enzyme using as L-tyrosine substrate by spectrophotometric analysis
[22] = molecular target: T2, Tyrosinase (Agaricus bisporus); test: Potency index, ratio IC50 for ascorbic acid to compound against mushroom tyrosinase assessed as inhibition constant for compound-free enzyme using as L-tyrosine substrate by spectrophotometric analysis
[23] = molecular target: T2, Tyrosinase (Agaricus bisporus); test: Potency index, ratio IC50 for arbutin to compound against mushroom tyrosinase assessed as inhibition constant for compound-free enzyme using as L-tyrosine substrate by spectrophotometric analysis

Compound: O=S([O-])O.[Na+] [SODIUM BISULFITE]
pIC50 [1]: 3.68

Compound: CCCCC/C=C\C/C=C\CCCc1cc(O)cc(O)c1
pIC50 [2]: 4.29
pIC50 [1]: 5.77

Compound: Oc1ccc(O)cc1 [HYDROQUINONE]
pIC50 [3]: 4.87
pIC50 [2]: 2.96

Now from value to compound, other results behind:

pIC50 [3]: 5.89
pIC50 [2]: 4.58
Compound: O=C1CC(c2ccc(O)cc2O)Oc2cc(O)cc(O)c21 (centres undefined) [STEPPOGENIN]

Ratio IC50 [4]: 52
TIME [5]: 0.167 h
inhibition [6]: Active
inhibition [7]: Active
inhibition [8]: Active
Ratio IC50 [9]: 59
inhibition [10]: Active
inhibition [11]: Active
inhibition [12]: Active
pKi [13]: 5.70
pKi [14]: 5.12
pKi [15]: 3.80
pKi [16]: 3.80
Ratio IC50 [17]: 495
Ratio Ki [19]: 15
Ratio Ki [20]: 8
Ratio IC50 [21]: 3
Ratio IC50 [22]: 7
Ratio IC50 [23]: 285
pIC50 [3]: 6.59
pIC50 [2]: 4.73
Compound: CC1(C)C=Cc2c(cc3c(c2O)C(=O)CC(c2ccc(O)cc2O)O3)O1 (centres undefined) [DALENIN]
Activity [18]: Active
